We go through one compound from publication PMC8414802, “Hair Cell Generation in Cochlear Culture Models Mediated by Novel γ-Secretase Inhibitors” (Frontiers in Cell and Developmental Biology, 2021).

The subject of data set [1] is hair cells in sisomicin-treated rat OC explants. Briefly: OC explants after sisomicin ototoxic damage. Conditions: sisomicin 200 μM 2 h. Type of data set: cell-based. The method, then: To induce ototoxic damage, medium was removed from the OC cultures on the day after dissection and either 200 μM sisomicin (Sigma) in full otic medium, or 10^8 cfu/ml Streptococcus pneumoniae (described below) in ampicillin-free and FBS-free otic medium were added under the transwell membrane (lower compartment) of the cultivation system. After 2 h of exposure to the ototoxic insult, OCs were carefully washed 3 times and culture was continued for 4 days in fresh full otic medium.
Following culture, explants were washed (PBS) and fixed for 10 min at room temperature (RT) with 4% paraformaldehyde (PFA). […]
Dividing cells were labeled with, 5-ethyl-2′-deoxyuridine (EdU) and detected with Click-it Plus kit (Life Technologies). […]
Image processing was performed with the open-source image processing software FIJI, version 2.0 ([Schindelin et al., 2012]). Hair cells were quantified by counting Pou4f3 or Myo7a positive cells of the organ of Corti at three random microscopic fields for each cochlear region (base, middle, and apex) covering in total at least 1,200 μm. The number of hair cells (IHCs and OHCs) is expressed as unit per 100 μm.
FIGURE 3 GSI treatment after ototoxic damage. […] (B) Quantification of OHCs in sisomicin-treated explants (2 h; 200 μM), 4 days after ototoxic insult, and cultured in presence or absence of CPD3. […] (F) OHC quantification after bacteria-induced damage. […]

A short description of data set [2]: Inner ear pharmacokinetics after transtympanic administration (perilymph, plasma; LC-MS/MS). Type of data set: in vivo, guinea pig. The method, then: Female albino Hartley guinea pigs, 250 g, from Charles River (France), housed in macrolon cages (2/cage; Innocage Rat Static-Innovive, Paris) with filter air, were maintained at 22 ± 2°C on a 12-h light cycle with standard A04C (UAR) diet and water “ad libitum.” Lgr5-GFP mice containing an EGFP-IRES-CreERT2 knock-in allele at the Lgr5 locus were obtained from the Jackson Labs (Stock 008875, C57BL/6J/RccHsd background). Atoh1-nGFP transgenic mice (C57Bl/6J background) were from Jane Johnson ([Lumpkin et al., 2003]). Wistar rats were obtained from Charles River.
γ-secretase inhibitors pharmacokinetic studies tested CPD3, CPD8 (Eli Lilly) or LY411575 (Stemcell Technologies) each formulated at 3.4 mg/ml in the following vehicles, 10% Poloxamer 338 (Sigma), 20% Poloxamer 338, 70% PEG400 (Sigma) or 1% hyaluronic acid (HA-700; Lifecore, Chaska, MN, United States) all prepared with PBS (pH 6.2). A single 70 μl injection of the formulated compound (total dose, 870 μg/kg) was delivered to the middle ear space of isoflurane-anesthetized guinea pigs by transtympanic administration. Perilymph from treated animals (perilymph volumes, >2 μl) was collected at time points up to 48 h post-administration (CILcare, Montpellier, France). Briefly, concentrations of each compound in perilymph and plasma, as well as controls prepared in artificial perilymph, were measured by LC-MS/MS on an AB Sciex, API 4000 mass spectrometer using an Onyx C18 5 μm 50^∗2.0 mm separation column (Oroxcell, Romainville, France).
To verify this, in vivo compound concentrations were measured in perilymph of guinea pigs after intratympanic delivery of GSIs into the middle ear. Initially, four vehicle formulations, with different physical properties, were tested, poloxamer 338 (POX; at 10% or 20%), hyaluronic acid (HA), or polyethylene glycol 400 (PEG). For this comparison only one GSI was prepared in each formulation (CPD3, 3.4 mg/ml) and a single dose was injected into the middle ear. Perilymph and plasma were sampled for 48 h (Figure 1D). […] Next, using only 10% POX as vehicle, inner ear adsorption was compared between CPD3, CPD8, and LY411575 by transtympanic injections (Figure 1D, inset). […] Each compound achieved levels several folds above their respective IC50s. The mean maximal perilymph concentration of CPD3 at 0.5 h post-dosing was 85,489 ng/ml (183 μM), then declined at 1 h to 12,928 ng/ml (27.7 μM), and at 6 h to 12,652 ng/ml (27.1 μM). GSIs in plasma samples were not detected (data not shown).

Where [3] appears, read: female, Hartley, guinea pig, perilymph, other: transtympanic (middle ear injection), 870 μg/kg, 10% POX vehicle, transtympanic.

Values joined by “and” are separate entries in the source; they are usually repeats but may differ in a detail not shown here. Equal values may be shown once.

On to `COc1ccc2c(c1)N1CCC(C)(C)C1=CC(=O)[C@H]2NC(=O)[C@H](C)NC(=O)CCC(F)(F)F` [CPD3], for which the “Increase of OHC numbers after sisomicin” value in data set [1] (4 days culture, apex) was “not statistically significant”. The “Pou4f3/Sox2 double-positive cells after sisomicin” value in data set [1] (4 days, p = 0.057) is given as “observed only in the apical domain”. Also, in data set [2] (10% POX and 20% POX formulations, post-dosing), the “Time at which mean maximal perilymph concentration was reached” value was found to be 0.5 h. The “Mean maximal perilymph concentration at 0.5 h post-dosing” value in data set [2] (10% POX vehicle, transtympanic) was 85,489 ng/ml and 183 μM. The Perilymph concentrations quantifiable result in data set [2] (10% POX, sampled at 0.5, 1 and 6 h post-dosing) is “quantifiable at all time points”. In data set [2] (setting [3]), the concentration at 1 h is 12900 ng/mL and 27.7 µM; the concentration at 6 h is 12700 ng/mL and 27.1 µM. In data set [2] (female, Hartley, guinea pig, perilymph, other: transtympanic (middle ear injection), 870 μg/kg, single transtympanic dose 3.4 mg/ml, 70 μl, span over the vehicle formulations (10% POX, 20% POX, HA, PEG400)), the concentration at 48 h is 485 ng/mL to 1000 ng/mL and 1 µM to 2.1 µM.
